“Also recorded” adds a separate entry of the source. Values belong to the substance of their own block, whether it stands above or below them.
Columns and labels:
[1] = biological target: T1, binding of heparin to peptide Hep-II (Homo sapiens, UniProt P08572); assay: Heparin/peptide interaction specificity: competition of 3H-heparin binding to coated peptide Hep-II by glycosaminoglycans; details: Hep-II coated from 500 μg/ml; 3H-heparin 50,000 cpm per well; 2 h 37° C.
T1 construct: made in house; host or cells: chemical solid-phase (Merrifield) synthesis, no expression host
Experimental: To check the specificity of the interaction between heparin and peptide Hep-II or whether the heparin structure was also critical to this interaction, heparin along with other sulfated glucosaminoglycans, dextran and chondroitin sulfate were used in competition experiments. A standard amount of 50 μg of a solution containing 500 μg/ml of peptide Hep-II was coated on 96-well plates as described above. Wells were treated for two hours with 2 mg/ml BSA in wash buffer. Then, a final volume of 50 μl was added to each well, containing a standard amount of […] (50,000 cpm per well) and various amounts of non-radioactive heparin, dextran or chondroitin sulfate. After incubating for two hours at 37° C., the wells were washed and radioactivity was counted as described above in Example 1.

endothelial cells [2] = assay: Direct binding of 125I-labeled peptide Hep-II to cell surfaces; design: species or system bovine; details: about 5,000 cells, 15 min. at 4° C., increasing concentrations
Experimental: Endothelial cells were grown in culture as described in example 4 (supra). Cells used for this type of experiment were not labeled with radioactivity. Unlabeled cells were harvested by trypsinization (supra) on the day of the experiment. About 5,000 cells were mixed with 50 μl of a given concentration of peptide Hep-II in solution. Increasing concentrations of peptide Hep-II were used. The cells were incubated with the iodinated peptide for 15 min. at 4° C. and they were then pelleted by centrifugation. The cells were then resuspended and washed 3 times with DMEM containing 2 mg/ml BSA and 50 mM Hepes. Following the washes, the cells were pelleted for a final time in plastic tubes, the supernatant was decanted and the radioactivity of the pellet was quantitated in a Beckman scintillation counter. The binding of peptide Hep-II to endothelial cells is saturable (FIG. 8)----an indication of specificity. These experiments indicate that peptide Hep-II specifically interacts with the surfaces of endothelial cells.

[3] = tested on: binding of heparin to type IV collagen; assay: Inhibition of heparin binding to type IV collagen coated on plastic by peptide in solution; details: peptide in solution 0.5 mg/ml to 5 μg/ml; 3H-heparin 500 ng per well; type IV collagen coated at 60 μg/ml
Experimental: Peptide Hep-II in solution (and not absorbed to plastic), was screened for the ability to inhibit the binding of heparin to intact, native type IV collagen coated on plastic. This experimental approach avoids problems due to differential coating of peptides in heparin binding assays. Type IV collagen at 60 μg/ml in PBS was coated on 96-well plates, using 50 μl per well and dried overnight at 28° C. The wells were then treated for two hours with 2 mg/ml BSA in wash buffer (described above in Example 1). Peptide Hep-II at various dilutions ranging from 0.5 mg/ml to 5 μg/ml in PBS and CHAPS (cholamido-propyl-dimethyl-ammonio-propane-sulfonate) (a detergent used to avoid non-specific sticking) was co-incubated with a standard amount of ^3 H-heparin (500 ng per well […] final concentration) for two hours at 37° C. and the mixture was then transferred to the […] coated plate (50 μl ) and allowed to incubate for another two hours at 37° C. The wells were then washed and radioactivity was counted as described above. […] Peptide Hep-I is also shown in comparison.

[4] = Heparin binding to plastic plates coated with peptide (3H-heparin direct binding)
Experimental: The ability of the synthesized peptide Hep-II to interact with heparin when coated on 96-well plastic plates was evaluated. Stock solutions of peptide Hep-II at a concentration of 500 μg/ml were prepared in phosphate-buffered saline containing 0.02% sodium azide. Fifty μl from each concentration was coated on the 96-well plates and left to dry overnight at 28° C. Then, wells were treated for two hours with […] of 2 mg/ml BSA and 6 mM phosphate, 10 mM NaCl, 68 μM CaCl2, pH 6.8 (wash buffer) in order to minimize non-specific binding. Next 50 μl of ^3 H-heparin (10 μg/ml) was added at increasing concentrations (0 to 1400 ng/well) for two hours at 37° C. The wells were then washed three times with wash buffer containing 0.05% Triton X-100 and finally they were incubated for thirty minutes at 60° C. with 200 μl of 0.5 N NaOH and 1% SDS. The amount of ^3 H-heparin bound at each concentration was quantitated with a Beckman LS-3801 liquid scintillation counter. […] Comparison with data obtained in the past using exactly the same methodology indicate that peptide Hep-II is at least 10 times stronger than peptide Hep-I (see FIG. 3B) and about 100 times stronger than type IV collagen, when used in the same coating concentrations.

endothelial cells [5] = assay: Inhibition of the binding of 125I-labeled peptide Hep-II to the cell surface by excess unlabeled peptide; design: species or system bovine; details: unlabeled peptide up to 500-fold excess; 15 min. at 4° C.
Experimental: Endothelial cells were grown in culture as discussed in examples 4 and 5A (supra). On the day of the experiment, the cells were harvested by trypsinization (supra) and were co-incubated with 50 μl of peptide Hep-II. 50 μl a constant amount of ^125 I-labeled peptide Hep-II was mixed with increasing concentrations of unlabeled peptide Hep-II or a control peptide (maximal excess of unlabeled peptide: 500-fold over radiolabeled Hep-II). 50 μl of each concentration of unlabeled peptide which was mixed with radiolabeled Hep-II were then added to cells in suspension (5,000 cells per concentration of peptide). The cells were incubated with the mixture of unlabeled-radiolabeled peptide for 15 min. at 4° C. and they were then pelleted. The cells were subsequently washed and bound radioactivity was quantitated as described in example 4. […] These experiments provide confirmation that a specific interaction occur between endothelial-cell surfaces and peptide Hep-II.

[6] = tested on: bovine aortic endothelial cells; assay: Direct adhesion of endothelial cells to peptide-coated plastic; type: cell-based; details: 35S-labeled cells, 120 min. at 37° C.; increasing coating concentrations
Experimental: Bovine aortic endothelial cells were isolated according to the following protocol. Aortas were obtained from a local slaughterhouse, washed in cold phosphate buffered saline (PBS) (136 mM NaCl, 2.6 mM KCl, 15.2 mM Na2 HPO4, pH 7.2) and processed within 2 hours. Crude collagenase (CLS III, 125-145 units per mg dry weight, Cooper Biomedical) was used at 2 mg/ml in Dulbecco's modified Eagle's medium (DMEM) (GIBCO). The vessel was clamped at the distal end, filled with the collagenase-PBS solution and digestion was carried out for 10 minutes. The lumenal contents were harvested, followed by the addition of fresh collagenase for two additional 10-minute periods. The enzyme-cell suspensions were added to an equal volume of DMEM containing 10% fetal bovine serum (FBS) to inhibit the enzyme and spun in a centrifuge at 400× g for 10 minutes. The resulting cell pellet was resuspended in DMEM containing 10% FBS, 100 units/ml of penicillin G, 100 μg/ml of streptomycin and 100 μg/ml of crude fibroblast growth factor. Cells are cultured in 75 cm^2 flasks in a humidified 5% CO2 atmosphere at 37° C. Cultures were fed twice a week with the same medium and cells were used in assays when approximately 75% confluent. […] At the end of the incubation period the wells were washed, bound radioactivity was solubilized by 1% SDS-0.5 N NaOH and quantitated in a Beckman scintillation counter. […]

[7] = tested on: melanoma and endothelial cells; assay: Promotion of cell adhesion and spreading (summary statements); type: cell-based; details: many cell types, including melanoma and endothelial cells
[8] = reported from U.S. Pat. No. 4,876,332; cited from earlier work
[9] = tested on: melanoma and endothelial cells; details: reported from U.S. Pat. No. 4,876,332; cited from earlier work

Substance: dextran
competition for the binding of tritiated heparin to peptide Hep-II [1]: substantially more dextran is needed to achieve similar levels of competition

heparin binding strength relative to type IV collagen ([4]; same coating concentrations, same methodology): about 100 times
Substance: leu-ala-gly-ser-cys-leu-ala-arg-phe-ser-thr-met (LAGSCLARFSTM) [Hep-II, type IV collagen residues 49-60 from the carboxyl-terminus of the α2 chain of the NCl domain]
binding of 125I-labeled peptide to endothelial cells (endothelial cells [2]): saturable | inhibition of heparin binding to type IV collagen [3]: strong inhibitor of heparin binding to type IV collagen | heparin binding to peptide coated on plastic ([4]; peptide coated on 96-well plates from 500 μg/ml stock, 3H-heparin 0 to 1400 ng/well, 2 h 37° C.): extremely potent promoter of heparin-binding; also recorded: very potent binder of heparin | competition of the binding of radiolabeled Hep-II to the surface of endothelial cells (endothelial cells [5]): can be competed only by an excess of unlabeled peptide Hep-II | adhesion of endothelial cells to coated substrate [6]: promotes substantial adhesion of endothelial cells even at very low plating concentrations | promotion of cell adhesion/attachment and spreading [7]: potent promoter of cell adhesion and spreading; also recorded: potent promoter of cell attachment and spreading

Substance: heparin
competition for the binding of tritiated heparin to peptide Hep-II [1]: able to compete for the binding of tritiated heparin to peptide Hep-II at very low concentrations

Substance: thr-ala-gly-ser-cys-leu-arg-lys-phe-ser-thr-met (TAGSCLRKFSTM) [Hep-I, peptide from the NCl domain of the α1(IV) chain, position 49-60 from the carboxyl terminus; U.S. Pat. No. 4,876,332]
heparin binding (earlier U.S. Pat. No. 4,876,332) [8]: ability to bind heparin | promotion of cell adhesion (earlier U.S. Pat. No. 4,876,332) [9]: promote cell adhesion

Substance: chondroitin sulfate
competition for the binding of tritiated heparin to peptide Hep-II [1]: cannot mimic this effect except at extremely high concentrations

From patent US5081031A, “Synthetic polypeptide with type IV collagen activity” (Regents of the University of Minnesota, priority 1989, dated 1992)
